Measurements published in patent US9227971B2, “Pyrazolo[1,5-a]pyrimidine compounds as mTOR inhibitors” (Merck Sharp & Dohme Corp., priority 2010, dated 2016).
Like-named read-outs stand apart in the source and are kept apart here.

Assays:
[1] = tested on: phosphorylated 4E-BP1 Thr37/46 (p4E-BP1 Thr37/46), mTORC1 activity, PC3 cells; assay: mTOR target engagement assay, immunofluorescent cell-based, p4E-BP1 Thr37/46 readout (mTORC1 activity)
In short: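 PTEN-mutant PC3 prostate cells were treated with serially diluted compound in 5% FBS F12 medium (0.25% DMSO) for ninety minutes at 37° C, glyoxal-fixed, then immunostained overnight at 4° C for p4E-BP1 Thr37/46 with an Alexa Fluor 488 secondary. IC50 came from four-parameter fits of fluorescence, DMSO-only wells defining 100%.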

[2] = tested on: phosphorylated AKT Ser473 (pAKT S473), mTORC2 activity, PC3 cells; assay: mTOR target engagement assay, immunofluorescent cell-based, pAKT S473 readout (mTORC2 activity)
In short: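 After blocking, cells were stained overnight at 4 °C with anti-pAKT S473 antibody, then a fluorescent secondary; inhibition was read as reduced fluorescence intensity.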

[3] = Homo sapiens, PC-3, Table 6-1, PC3 cells
[4] = Homo sapiens, PC-3, Table 3-1, PC3 cells, read-out: p4E-BP1 Thr37/46 IC50
[5] = Homo sapiens, PC-3, Table 3-1, PC3 cells
[6] = Homo sapiens, PC-3, PC3 cells, compound treatment ninety minutes at 37° C., read-out: p4E-BP1 Thr37/46 IC50
[7] = Homo sapiens, PC-3, PC3 cells, compound treatment ninety minutes at 37° C.

SMILES	IC50 [1, 4] [nM]	IC50 [2, 5] [nM]	IC50 [1, 6] [nM]	IC50 [2, 7] [nM]	other results
CC(=O)c1c([C@@H]2C[C@H]3CC[C@@H](C2)N3C(=O)C(C)F)nc2c(-c3ccc(-c4ncc[nH]4)nc3)cnn2c1N (stereo partly drawn) [Compound 6.23, 1-((1R,3s,5S)-3-(3-(6-(1H-imidazol-2-yl)pyridin-3-yl)-6-acetyl-7-aminopyrazolo[1,5-a]pyrimidin-5-yl)-8-azabicyclo[3.2.1]octan-8-yl)-2-fluoropropan-1-one]	–	–	–	–	IC50 ([1]; Homo sapiens, PC-3, Table 6-1, PC3 cells, read-out: p4E-BP1 Thr37/46 IC50): 100 to 1000 nM; IC50 [2, 3]: 1 to 100 nM
CS(=O)(=O)c1c([C@@H]2C[C@H]3CC[C@@H](C2)N3C(=O)c2cc3cccnc3[nH]2)nc2c(-c3ccc(-c4ccccc4)nc3)cnn2c1N [Compound 3.77, ((1R,3s,5S)-3-(7-amino-6-(methylsulfonyl)-3-(6-phenylpyridin-3-yl)pyrazolo[1,5-a]pyrimidin-5-yl)-8-azabicyclo[3.2.1]octan-8-yl)(1H-pyrrolo[2,3-b]pyridin-2-yl)methanone]	> 10000	1000 to 10000	–	–	–
CS(=O)(=O)c1c([C@H]2CC3CC[C@H](C2)N3C(=O)NO)nc2c(-c3ccc(-c4ccccc4)nc3)cnn2c1N [Compound 3.172, (1R,3s,5S)-3-(7-amino-6-(methylsulfonyl)-3-(6-phenylpyridin-3-yl)pyrazolo[1,5-a]pyrimidin-5-yl)-N-hydroxy-8-azabicyclo[3.2.1]octane-8-carboxamide]	1 to 100	100 to 1000	–	–	–
CS(=O)(=O)c1c([C@@H]2C[C@H]3CC[C@@H](C2)N3C(=O)c2nnc[nH]2)nc2c(-c3cn[nH]c3)cnn2c1N [Compound 3.113, ((1R,3s,5S)-3-(7-amino-6-(methylsulfonyl)-3-(1H-pyrazol-4-yl)pyrazolo[1,5-a]pyrimidin-5-yl)-8-azabicyclo[3.2.1]octan-8-yl)(4H-1,2,4-triazol-3-yl)methanone]	1000 to 10000	> 10000	–	–	–
Cc1cnc(-c2ccc(-c3cnn4c(N)c(S(C)(=O)=O)c([C@H]5CC6CC[C@H](C5)N6C(=O)c5cn[nH]n5)nc34)cn2)s1 [Compound 3.181, ((1R,3s,5S)-3-(7-amino-6-(methylsulfonyl)-3-(6-(5-methylthiazol-2-yl)pyridin-3-yl)pyrazolo[1,5-a]pyrimidin-5-yl)-8-azabicyclo[3.2.1]octan-8-yl)(2H-1,2,3-triazol-4-yl)methanone]	1 to 100	100 to 1000	–	–	–
CS(=O)(=O)c1c([C@@H]2C[C@H]3CC[C@@H](C2)N3C(=O)c2nnc[nH]2)nc2c(-c3ccc(-c4ccccn4)cc3)cnn2c1N [Compound 3.31, ((1R,3s,5S)-3-(7-amino-6-(methylsulfonyl)-3-(4-(pyridin-2-yl)phenyl)pyrazolo[1,5-a]pyrimidin-5-yl)-8-azabicyclo[3.2.1]octan-8-yl)(4H-1,2,4-triazol-3-yl)methanone]	100 to 1000	1 to 100	–	–	–
CC(=O)c1c([C@@H]2C[C@H]3CC[C@@H](C2)N3C(=O)c2nnc[nH]2)nc2c(-c3cncc(CO)c3)cnn2c1N [Compound 1.1.184, 1-(5-((1R,3s,5S)-8-(4H-1,2,4-triazole-3-carbonyl)-8-azabicyclo[3.2.1]octan-3-yl)-7-amino-3-(5-(hydroxymethyl)pyridin-3-yl)pyrazolo[1,5-a]pyrimidin-6-yl)ethanone]	–	–	100 to 1000	100 to 1000	–
CC(=O)c1c([C@@H]2C[C@H]3CC[C@@H](C2)N3C(=O)c2n[nH]c(N)n2)nc2c(-c3ccc(-c4ccccc4)nc3)cnn2c1N [Compound 1.1.140, 1-(7-amino-5-((1R,3s,5S)-8-(5-amino-1H-1,2,4-triazole-3-carbonyl)-8-azabicyclo[3.2.1]octan-3-yl)-3-(6-phenylpyridin-3-yl)pyrazolo[1,5-a]pyrimidin-6-yl)ethanone]	–	–	1 to 100	1 to 100	–
CC(=O)c1c([C@@H]2C[C@H]3CC[C@@H](C2)N3C(=O)[C@H](C)O)nc2c(-c3ccc(-c4ccccc4)nc3)cnn2c1N [Compound 1.1.8, (S)-1-((1R,3R,5S)-3-(6-acetyl-7-amino-3-(6-phenylpyridin-3-yl)pyrazolo[1,5-a]pyrimidin-5-yl)-8-azabicyclo[3.2.1]octan-8-yl)-2-hydroxypropan-1-one]	–	–	100 to 1000	1 to 100	–
CC(=O)c1c([C@@H]2C[C@H]3CC[C@@H](C2)N3C(=O)c2nnc(N)[nH]2)nc2c(-c3ccc(C(C)(C)O)nc3)cnn2c1N [Compound 7.13, 1-(7-amino-5-((1R,3s,5S)-8-(5-amino-4H-1,2,4-triazole-3-carbonyl)-8-azabicyclo[3.2.1]octan-3-yl)-3-(6-(2-hydroxypropan-2-yl)pyridin-3-yl)pyrazolo[1,5-a]pyrimidin-6-yl)ethanone]	–	–	100 to 1000	100 to 1000	–
CC(=O)N1[C@@H]2CC[C@H]1C[C@H](c1nc3c(-c4ccc(-c5nc(C)cs5)nc4)cnn3c(N)c1S(C)(=O)=O)C2 [Compound 3.190, 1-((1R,3a,5S)-3-(7-amino-6-(methylsulfonyl)-3-(6-(4-methylthiazol-2-yl)pyridin-3-yl)pyrazolo[1,5-a]pyrimidin-5-yl)-8-azabicyclo[3.2.1]octan-8-yl)ethanone]	1000 to 10000	1000 to 10000	–	–	–
CS(=O)(=O)c1c(C2CC3CCC(C2)N3C(=O)c2nnc[nH]2)nc2c(-c3ccc(-c4ccccc4)[n+]([O-])c3)cnn2c1N [Compound 3.6, 5-(5-((1R,3s,5S)-8-(1H-1,2,4-triazole-3-carbonyl)-8-azabicyclo[3.2.1]octan-3-yl)-7-amino-6-(methylsulfonyl)pyrazolo[1,5-a]pyrimidin-3-yl)-2-phenylpyridine 1-oxide]	100 to 1000	100 to 1000	–	–	–
CC(=O)c1c([C@@H]2C[C@H]3CC[C@@H](C2)N3C(=O)c2nnc[nH]2)nc2c(-c3cnc(NC4CC4)nc3)cnn2c1N [Compound 8.49, 1-(5-((1R,3s,5S)-8-(4H-1,2,4-triazole-3-carbonyl)-8-azabicyclo[3.2.1]octan-3-yl)-7-amino-3-(2-(cyclopropylamino)pyrimidin-5-yl)pyrazolo[1,5-a]pyrimidin-6-yl)ethanone]	–	–	–	–	IC50 ([1]; PC3 cells, read-out: p4E-BP1 Thr37/46 IC50): 1 to 100 nM; IC50 ([2]; PC3 cells): 1 to 100 nM
CS(=O)(=O)c1c([C@@H]2C[C@H]3CC[C@@H](C2)N3C(=O)c2nnc[nH]2)nc2c(-c3cnc(-c4ccccc4)nc3)cnn2c1N [Compound 3.136, ((1R,3s,5S)-3-(7-amino-6-(methylsulfonyl)-3-(2-phenylpyrimidin-5-yl)pyrazolo[1,5-a]pyrimidin-5-yl)-8-azabicyclo[3.2.1]octan-8-yl)(4H-1,2,4-triazol-3-yl)methanone]	1 to 100	1 to 100	–	–	–
COc1ccc(-c2ccc(-c3cnn4c(N)c(S(C)(=O)=O)c([C@@H]5C[C@H]6CC[C@@H](C5)N6C(=O)c5nnc[nH]5)nc34)cn2)c(F)c1 [Compound 3.32, ((1R,3s,5S)-3-(7-amino-3-(6-(2-fluoro-4-methoxyphenyl)pyridin-3-yl)-6-(methylsulfonyl)pyrazolo[1,5-a]pyrimidin-5-yl)-8-azabicyclo[3.2.1]octan-8-yl)(4H-1,2,4-triazol-3-yl)methanone]	1 to 100	1 to 100	–	–	–
CC(=O)c1c([C@@H]2C[C@H]3CC[C@@H](C2)N3C(=O)CF)nc2c(-c3ccc(-c4ncc[nH]4)nc3)cnn2c1N [Compound 6.22, 1-((1R,3s,5S)-3-(3-(6-(1H-imidazol-2-yl)pyridin-3-yl)-6-acetyl-7-aminopyrazolo[1,5-a]pyrimidin-5-yl)-8-azabicyclo[3.2.1]octan-8-yl)-2-fluoroethanone]	–	–	–	–	IC50 ([1]; Homo sapiens, PC-3, read-out: p4E-BP1 Thr37/46 IC50): 1 to 100 nM; IC50 [2, 3]: 1 to 100 nM
CC(=O)c1c([C@@H]2C[C@H]3CC[C@@H](C2)N3C(=O)c2nnc[nH]2)nc2c(-c3ccc(C(C)O)nc3)cnn2c1N (stereo partly drawn) [Compound 7.4, 1-(5-((1R,3s,5S)-8-(4H-1,2,4-triazole-3-carbonyl)-8-azabicyclo[3.2.1]octan-3-yl)-7-amino-3-(6-(1-hydroxyethyl)pyridin-3-yl)pyrazolo[1,5-a]pyrimidin-6-yl)ethanone]	–	–	1 to 100	1 to 100	–
CS(=O)(=O)c1c([C@@H]2C[C@H]3CC[C@@H](C2)N3C(=O)c2cn[nH]c2N)nc2c(-c3ccc(-c4ccccc4)nc3)cnn2c1N [Compound 3.90, (5-amino-1H-pyrazol-4-yl)((1R,3s,5S)-3-(7-amino-6-(methylsulfonyl)-3-(6-phenylpyridin-3-yl)pyrazolo[1,5-a]pyrimidin-5-yl)-8-azabicyclo[3.2.1]octan-8-yl)methanone]	1 to 100	1 to 100	–	–	–
COc1ccc(-c2ccc(-c3cnn4c(N)c(C5CC5)c([C@@H]5C[C@H]6CC[C@@H](C5)N6C(=O)c5nnc[nH]5)nc34)cn2)c(F)c1F [Compound 4.10, ((1R,3a,5S)-3-(7-amino-6-cyclopropyl-3-(6-(2,3-difluoro-4-methoxyphenyl)pyridin-3-yl)pyrazolo[1,5-a]pyrimidin-5-yl)-8-azabicyclo[3.2.1]octan-8-yl)(4H-1,2,4-triazol-3-yl)methanone]	–	–	1 to 100	1 to 100	–
CC(=O)c1c([C@@H]2C[C@H]3CC[C@@H](C2)N3C(=O)c2nnc[nH]2)nc2c(-c3ccc(N)nc3)cnn2c1N [Compound 8.48, 1-(5-((1R,3s,5S)-8-(4H-1,2,4-triazole-3-carbonyl)-8-azabicyclo[3.2.1]octan-3-yl)-7-amino-3-(6-aminopyridin-3-yl)pyrazolo[1,5-a]pyrimidin-6-yl)ethanone]	–	–	–	–	IC50 ([1]; Homo sapiens, PC-3, PC3 cells, read-out: p4E-BP1 Thr37/46 IC50): 1 to 100 nM; IC50 ([2]; Homo sapiens, PC-3, PC3 cells): 1 to 100 nM
